pIC50: −log10 of the molar value. Like-named read-outs stand apart in the source and are kept apart here.
Key:
[1] = target: wild-type C. elegans complex II (Caenorhabditis elegans, UniProt O62215+P41956+Q09508+Q09545); test: biochemical; assay type: biochemical
C. elegans N2 = test: 96-well liquid-based dose-response (in vivo LD100), wild-type worms; conditions: lowest concentration with no viable animals in four of four wells, 6 days after 20 L1 worms deposited
Protocol: (§1) The 96-well liquid-based chemical screening assay was adapted from an established RNAi screening protocol. Briefly, saturated HB101 Escherichia coli culture was concentrated 2-fold using NGM (nematode growth media) containing 3 mg ml^−1 NaCl, 2.5 mg ml^−1 peptone, 5 μg ml^−1 cholesterol, 1 mM CaCl2, 1 mM MgSO4 and 25 mM KH2PO4. A total of 40 μl of NGM+HB101 was dispensed into each well of a 96-well plate, and chemicals were pinned into the wells using a pinning tool with a 300 nl slot volume (V&P Scientific). Approximately 20 synchronized first larval-stage (L1) worms, in 10 μl of M9 buffer (see ref. [24] for the recipe), were then added to each well. The synchronized L1s were obtained from an embryo preparation (see ref. [24] for the protocol) performed the previous day. The final concentration of dimethyl sulfoxide (DMSO) in the wells was 0.6% v/v. A dissection microscope was used to visualize the wells either 5 or 6 days post worm deposition and any obvious chemical-induced phenotypes were noted.
(§2) The 96-well liquid-based assay was also used for all follow-up dose-response experiments in this work. These experiments were carried out in quadruplicate, and the total number of worms in each well was counted 6 days after worm deposition.

[2] = tested on: wact-11-family resistant C. elegans mutants (RP2674, RP2698 and others); test: 96-well liquid-based dose-response (in vivo LD100), wact-11-family resistant mutants; conditions: for Resistance of wact-11-family resistant mutants to compound-induced lethality (in words): liquid dose-response of resistant mutants versus N2; for In vivo LD100: 6 days
Protocol: as §1, §2

[3] = tested on: three nematode species, zebrafish and HEK cells; test: Grouping by phylogenetic bioactivity profile (multi-organism screening pipeline); design: key: Group 1 molecules are lethal to only one or two of the three nematode species tested, but are non-lethal to zebrafish and HEK cells.; Group 2 molecules are lethal to all three nematode species, but are non-lethal to zebrafish and human cells.; Group 3 molecule are lethal to fish or HEK cells, regardless of their nematode bioactivity profile; conditions: nematode selectivity and cross-species lethality group
Excerpt: To further characterize our 275 C. elegans-lethal molecules, we organized them into three separate groups based on their phylogenetic bioactivity profiles (Fig. 2a). Group 1 contains 102 molecules that are lethal to only one or two of the three nematode species tested, but are non-lethal to zebrafish and HEK cells. Group 2 contains 67 compounds that are lethal to all three nematode species, but are non-lethal to zebrafish and human cells. Group 3 contains the remaining 106 compounds that are lethal to fish or HEK cells, and have varied bioactivity in different nematode species. In particular, the 67 molecules in group 2 represent potentially ideal anthelmintic leads; they have activity across multiple nematode species, and appear not to affect vertebrates.

Mouse complex II = target: T1, Mouse complex II (Mus musculus, UniProt Q9CQA3+Q9CXV1+Q9CZB0); test: Cell-free Complex II functional assay, mouse liver mitochondria; assay type: biochemical, M. musculus
T1 construct: The livers from three 8–10-week-old C57Bl/6 female mice (Charles River) were removed; tissue Charles River (mice); host or cells: crude mitochondria from liver of C57Bl/6 female mice
Protocol: The livers from three 8–10-week-old C57Bl/6 female mice (Charles River) were removed, collected in 1.5 ml microcentrifuge tubes, flash frozen in liquid nitrogen and stored at −80 °C until needed. Just before mitochondria isolation, the livers were weighed, placed into a 10-cm petri dish and 10 ml isolation buffer A was added per gram of liver tissue. The tissue was finely minced with a razor blade, transferred to a glass Dounce homogenizer and homogenized by 10 strokes on ice. The homogenate was centrifuged at 1,000g for 10 min at 4 °C. The supernatant was collected and centrifuged at 1,000g for 10 min at 4 °C. The supernatant was again collected and centrifuged at 16,000g for 10 min at 4 °C. The pellet was resuspended in 20 ml of isolation buffer B and centrifuged at 16,000g for 10 min at 4 °C. The pellet was resuspended in 20 ml of isolation buffer B, and 1 ml aliquots of the resuspension were distributed into 20 × 1.5 ml microcentrifuge tubes. The aliquoted resuspensions were centrifuged at 16,000g for 10 min at 4 °C. The supernatant was aspirated, the pellet was flash frozen in liquid nitrogen and stored frozen at −80 °C until needed. The mice used for experimentation were housed and used in accordance with ‘the use and care of experimental animals' guidelines. […]
Mitochondrial pellets were thawed on ice and resuspended in 300 μl of cold isolation buffer B. Using the BCA assay, the protein concentration of the mitochondria suspension was determined and was subsequently diluted to a concentration of 0.2 mg ml^−1 with cold isolation buffer B. Complex II enzymatic assays were carried out in 96-well flat bottom plates. […] Absorbance for each well was measured at 600 nm using a SpectraMax Plus 384-well Microplate Reader, combined with SoftmaxPro software at 30-s intervals over a 35-min time period. Absorbance versus time was plotted for each well and enzyme activity was calculated as the slope of the line defined by the points ranging from 4 to 10 min. Per cent activity was calculated by dividing the enzyme activity of the chemical-treated wells by that of the DMSO control wells. […]

[4] = target: C. elegans complex II with SDHC-1(R74K) missense mutation (Caenorhabditis elegans, UniProt O62215+P41956+Q09508+Q09545, R74K); test: Cell-free Complex II functional assay, mitochondria from wact-11-resistant mutants RP2674 and RP2698; assay type: biochemical
[5] = tested on: complex II from the parasitic nematode Ascaris suum; design: method as in PMID 19724139, PMID 23333273; conditions: cited from earlier work
[6] = M. musculus, C57Bl/6 liver mitochondria, read-out: In vitro Complex II IC50
[7] = C. elegans strain RP2674 (SDHC R74K)
[8] = C. elegans strain RP2698 (SDHC R74K)
[9] = read-out: In vitro Complex II IC50, C. elegans, strain RP2674, SDHC R74K
[10] = read-out: In vitro Complex II IC50, C. elegans, strain RP2698, SDHC R74K
[11] = C. elegans, strain N2, SDHC residue change none, read-out: In vitro Complex II IC50

Sequence of wild-type C. elegans complex II (O62215 whole entry): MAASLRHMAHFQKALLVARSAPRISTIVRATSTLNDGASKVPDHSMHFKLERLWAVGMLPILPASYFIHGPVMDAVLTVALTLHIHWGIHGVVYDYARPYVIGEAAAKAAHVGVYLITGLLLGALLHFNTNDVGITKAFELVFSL
Sequence of wild-type C. elegans complex II (Q09545 whole entry): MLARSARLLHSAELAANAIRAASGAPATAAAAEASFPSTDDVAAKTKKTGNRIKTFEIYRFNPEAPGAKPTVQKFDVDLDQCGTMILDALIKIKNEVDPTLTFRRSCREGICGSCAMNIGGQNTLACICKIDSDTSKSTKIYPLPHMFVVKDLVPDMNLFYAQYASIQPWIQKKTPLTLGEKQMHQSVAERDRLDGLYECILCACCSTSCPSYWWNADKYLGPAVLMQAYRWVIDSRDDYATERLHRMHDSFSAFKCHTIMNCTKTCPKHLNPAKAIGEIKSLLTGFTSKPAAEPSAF
Sequence of wild-type C. elegans complex II (Q09508 32-646): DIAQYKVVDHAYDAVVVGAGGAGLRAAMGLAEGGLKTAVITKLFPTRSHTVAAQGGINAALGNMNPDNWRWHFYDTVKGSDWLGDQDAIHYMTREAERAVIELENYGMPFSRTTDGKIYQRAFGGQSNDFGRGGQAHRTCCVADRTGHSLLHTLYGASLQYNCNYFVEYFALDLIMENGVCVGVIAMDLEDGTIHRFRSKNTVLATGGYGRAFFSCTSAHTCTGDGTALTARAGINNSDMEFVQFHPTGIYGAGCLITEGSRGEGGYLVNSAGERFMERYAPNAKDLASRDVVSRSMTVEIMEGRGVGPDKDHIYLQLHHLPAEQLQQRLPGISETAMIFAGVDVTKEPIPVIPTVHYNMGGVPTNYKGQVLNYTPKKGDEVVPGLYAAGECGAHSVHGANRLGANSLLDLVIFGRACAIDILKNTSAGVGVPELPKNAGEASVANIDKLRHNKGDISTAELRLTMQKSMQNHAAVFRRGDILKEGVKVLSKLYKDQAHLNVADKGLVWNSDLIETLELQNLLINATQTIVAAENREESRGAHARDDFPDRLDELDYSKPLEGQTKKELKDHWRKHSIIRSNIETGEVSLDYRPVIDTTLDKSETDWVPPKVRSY
Sequence of wild-type C. elegans complex II (P41956 whole entry): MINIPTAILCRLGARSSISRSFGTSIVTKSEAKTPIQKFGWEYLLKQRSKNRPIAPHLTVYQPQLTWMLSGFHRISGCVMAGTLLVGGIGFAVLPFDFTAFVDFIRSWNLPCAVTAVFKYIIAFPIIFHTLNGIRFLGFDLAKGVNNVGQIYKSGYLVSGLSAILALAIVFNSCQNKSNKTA
Sequence of C. elegans complex II with SDHC-1(R74K) missense mutation (O62215 whole entry): as the sequence (O62215 whole entry) above
Sequence of C. elegans complex II with SDHC-1(R74K) missense mutation (P41956 whole entry R74K): as the sequence (P41956 whole entry) above, with R74K counted along it
Sequence of C. elegans complex II with SDHC-1(R74K) missense mutation (Q09508 32-646): as the sequence (Q09508 32-646) above
Sequence of C. elegans complex II with SDHC-1(R74K) missense mutation (Q09545 whole entry): as the sequence (Q09545 whole entry) above
T1 sequence (Q9CZB0 30-169): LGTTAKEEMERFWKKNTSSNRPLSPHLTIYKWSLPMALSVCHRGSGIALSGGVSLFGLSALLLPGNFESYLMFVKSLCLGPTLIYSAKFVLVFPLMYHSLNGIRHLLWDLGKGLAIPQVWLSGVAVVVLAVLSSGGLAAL
T1 sequence (Q9CQA3 31-282): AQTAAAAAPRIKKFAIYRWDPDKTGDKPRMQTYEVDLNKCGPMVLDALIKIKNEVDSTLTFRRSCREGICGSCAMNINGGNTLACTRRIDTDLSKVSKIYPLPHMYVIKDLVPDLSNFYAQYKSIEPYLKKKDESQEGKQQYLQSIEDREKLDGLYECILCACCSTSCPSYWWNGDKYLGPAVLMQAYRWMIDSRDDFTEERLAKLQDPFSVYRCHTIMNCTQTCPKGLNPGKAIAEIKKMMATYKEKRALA
T1 sequence (Q9CXV1 57-159): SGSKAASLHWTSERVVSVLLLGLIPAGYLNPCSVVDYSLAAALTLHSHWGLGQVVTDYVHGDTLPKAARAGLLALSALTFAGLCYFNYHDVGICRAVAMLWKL
T1 sequence (Q8K2B3 43-664 partner): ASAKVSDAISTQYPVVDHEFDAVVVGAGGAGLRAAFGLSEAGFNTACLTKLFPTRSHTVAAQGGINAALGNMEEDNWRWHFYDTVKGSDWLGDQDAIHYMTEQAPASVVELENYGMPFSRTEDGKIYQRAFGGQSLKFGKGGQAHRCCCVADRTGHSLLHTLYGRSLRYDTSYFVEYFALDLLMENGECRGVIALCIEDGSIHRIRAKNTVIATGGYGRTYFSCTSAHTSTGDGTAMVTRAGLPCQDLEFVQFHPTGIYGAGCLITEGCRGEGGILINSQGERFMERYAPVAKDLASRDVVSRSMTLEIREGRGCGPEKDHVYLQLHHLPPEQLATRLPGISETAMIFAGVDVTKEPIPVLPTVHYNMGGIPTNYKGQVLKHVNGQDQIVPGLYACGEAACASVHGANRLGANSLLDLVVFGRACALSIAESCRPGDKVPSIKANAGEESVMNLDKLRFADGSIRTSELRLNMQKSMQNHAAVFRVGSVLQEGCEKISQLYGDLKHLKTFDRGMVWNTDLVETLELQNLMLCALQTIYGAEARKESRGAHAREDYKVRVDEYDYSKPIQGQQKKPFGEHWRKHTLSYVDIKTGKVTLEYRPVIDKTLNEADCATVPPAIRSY

## O=C(NCCc1ncc(C(F)(F)F)cc1Cl)c1ccccc1C(F)(F)F [Fluopyram]
[1]
  pIC50: 8.74
[1]; C. elegans N2 complex II IC50
  Less inhibiting than wact-11 f and wact-11 m: ~2 fold
C. elegans N2
  In vivo LD100: 0.469 µM
[2]
  Resistance of wact-11-family resistant mutants to compound-induced lethality (in words): resist the lethality

## CCCCCNC(=O)c1ccccc1SC [wact-127]
[3]
  Group # (Bioactivity Group #): 2

## CCc1ccc(OCCNC(=O)c2ccccc2I)cc1 [wact-12]
[1]
  pIC50: 8.24
Mouse complex II; [6]
  pIC50: < 5.00
[3]
  Group # (Bioactivity Group #): 2
C. elegans N2
  In vivo LD100: 7.5 µM
[2]; [7]
  In vivo LD100: >120 µM
[2]; [8]
  In vivo LD100: >120 µM
[4]
  pIC50: < 5.00
[4]; [9]
  pIC50: < 5.00
[4]; [10]
  pIC50: < 5.00

## COc1[nH]c(=O)c(C(=O)[C@@H](C)C[C@H](C)[C@@H](Cl)CCl)c(O)c1OC [Atpenin A5]
Mouse complex II
  pIC50: 6.23
C. elegans N2
  In vivo LD100: >120 µM

## Cc1ccc(SCCNC(=O)c2ccccc2I)cc1 [wact-12c]
[1]; [11]
  pIC50: 6.88
C. elegans N2
  In vivo LD100: >120 µM

## O=C(NCCc1ccc(Cl)cc1)c1ccccc1C(F)(F)F [wact-11]
[1]
  pIC50: 8.13
Mouse complex II; [6]
  pIC50: < 5.00
[3]
  Group # (Bioactivity Group #): 2
C. elegans N2
  In vivo LD100: 7.5 µM
[2]; [7]
  In vivo LD100: >120 µM
[2]; [8]
  In vivo LD100: >120 µM
[2]
  Resistance of wact-11-family resistant mutants to compound-induced lethality (in words): at least some resistance
[4]
  pIC50: < 5.00
[4]; [9]
  pIC50: < 5.00
[4]; [10]
  pIC50: < 5.00

## CC1=C(C(=O)Nc2ccccc2)SCCO1 [Carboxine]
[1]
  pIC50: < 5.00
C. elegans N2
  In vivo LD100: >120 µM

## C/C=C/CC(C)C(=O)c1c(O)c(OC)c(OC)[nH]c1=O (stereo not shown) [Harz, harzianopyridone]
[1]; [11]
  pIC50: < 5.00
C. elegans N2
  In vivo LD100: >120 µM

## O=C(CC(=O)C(F)(F)F)c1cccs1 [TTFA, thenoyltrifluoroacetone]
[1]; [11]
  pIC50: < 5.00
C. elegans N2
  In vivo LD100: >120 µM

## O=C(Nc1ccccc1)c1ccccc1I [Benodanil]
[1]
  pIC50: 6.73
C. elegans N2
  In vivo LD100: 120 µM
[2]
  Resistance of wact-11-family resistant mutants to compound-induced lethality (in words): resist the lethality

## O=C(Nc1ccccc1-c1ccc(Cl)cc1)c1cccnc1Cl [Boscalid]
[1]
  pIC50: 6.26
C. elegans N2
  In vivo LD100: >120 µM

## CC(C)Oc1cccc(NC(=O)c2ccccc2C(F)(F)F)c1 [Flutolanil]
[1]
  pIC50: 6.51
C. elegans N2
  In vivo LD100: >120 µM
[5]
  Inhibition of Ascaris suum complex II in vitro (in words): inhibit

## Cc1nc(C(F)(F)F)c(C(=O)Nc2c(Br)cc(OC(F)(F)F)cc2Br)s1 [Thifluzamide]
[1]
  pIC50: 5.42
C. elegans N2
  In vivo LD100: >120 µM

## Cc1occc1C(=O)Nc1ccccc1 [Fenfuran]
[1]
  pIC50: 5.28
C. elegans N2
  In vivo LD100: >120 µM

## CC1=NS(=O)(=O)c2cc(Cl)ccc2N1 [Diazoxide]
[1]
  pIC50: < 5.00
C. elegans N2
  In vivo LD100: >120 µM

## O=C([O-])CC(=O)[O-].[Na+].[Na+] [Malonate, disodium malonate]
[1]; [11]
  pIC50: 2.31
C. elegans N2
  In vivo LD100: >120 µM
[4]; C. elegans, strain RP2674, SDHC R74K, read-out: In vitro Complex II IC50
  pIC50: 2.38
[4]; C. elegans, strain RP2698, SDHC R74K, read-out: In vitro Complex II IC50
  pIC50: 2.38

From article PMC4491176, “Caenorhabditis elegans is a useful model for anthelmintic discovery” (Nature Communications, 2015)
